Assay [1] deals with binding between Nrf2 and Keap1 (Homo sapiens (Human), UniProt Q14145). The assay can be described thus: FP assay (in vitro): inhibition of Nrf2-Keap1 binding by fluorescence polarization. The settings on record: GST-fused human Keap1 (325-642) 20 nM, FITC-labeled Nrf2 peptide 10 nM, 2 hr at room temperature. On the technique in general: In fluorescence polarisation assays a small probe gives low polarisation when free and higher when bound to something large.

Assay [2] deals with NQO1 activity in Hepa1c1c7 cells. Put plainly: NAD(P)H: quinone oxidoreductase-1 (NQO1) enzyme induction assay (in vitro). Format: cell-based, mouse. The settings on record: Mus musculus, Hepa-1c1c7, NQO1 activity with 400 nM test compound as a ratio from the base without compound, about 48 hr. The method in brief:
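Mouse Hepa1c1c7 hepatoma cells treated 48 hr with 400 nM compound (final). NQO1 activity in lysates read by absorbance at 610 nm; value is background-subtracted activity ratio versus untreated cells.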

The record followed here is patent publication US20250092064A1, “BENZOTRIAZOLE COMPOUND” (DAIICHI SANKYO COMPANY, LIMITED, priority 2022, published 2025).

Chain of binding between Nrf2 and Keap1 (Q14145 325-624 limits assumed): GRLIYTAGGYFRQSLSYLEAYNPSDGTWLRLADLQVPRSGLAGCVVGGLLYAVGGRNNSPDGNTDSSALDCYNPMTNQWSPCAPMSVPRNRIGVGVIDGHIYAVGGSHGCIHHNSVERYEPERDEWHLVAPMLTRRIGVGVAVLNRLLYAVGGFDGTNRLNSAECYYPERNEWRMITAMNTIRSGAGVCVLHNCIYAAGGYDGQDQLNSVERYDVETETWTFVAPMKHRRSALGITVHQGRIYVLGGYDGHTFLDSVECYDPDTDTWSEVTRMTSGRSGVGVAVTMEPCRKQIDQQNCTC

Broadly, the IC50 is the concentration at which inhibition is half-maximal. Read a high IC50 as lower potency. For orientation: fold induction means the signal under treatment as a multiple of the control signal. For the compound `CC[C@@H]1CN(Cc2cc([C@H](CC(=O)O)c3cc(OC(F)(F)F)c4c(nnn4C)c3C)cc3ccsc23)S(=O)(=O)c2cc(Cl)cnc2O1` [Example 46, (3S)-3-(7-{[(4R)-8-Chloro-4-ethyl-1,1-dioxido-3,4-dihydro-2H-pyrido[2,3-b][1,4,5]oxathiazepin-2-yl]methyl}-1-benzothiophen-5-yl)-3-[1,4-dimethyl-7-(trifluoromethoxy)-1H-benzotriazol-5-yl]propanoic acid], in assay [1], the IC50 lay within 10 to 30 nM. The fold induction at 0.4 µM in assay [2] was 3 to 5.

`CC[C@@H]1CN(Cc2cc([C@@H](CC(=O)O)c3ccc4c(nnn4C)c3C)cc3c2CCC3)S(=O)(=O)c2cc(C)cnc2O1` [Example 47, (3R)-3-(1,4-Dimethyl-1H-benzotriazol-5-yl)-3-(7-{[(4R)-4-ethyl-8-methyl-1,1-dioxido-3,4-dihydro-2H-pyrido[2,3-b][1,4,5]oxathiazepin-2-yl]methyl}-2,3-dihydro-1H-inden-5-yl)propanoic acid]: in assay [1], the IC50 was no more than 10 nM. In addition, the fold induction at 0.4 µM in assay [2] lay within 3 to 5.

`CC[C@@H]1CN(Cc2cc([C@@H](CC(=O)O)c3ccc4c(nnn4C)c3C)cc3c2CCC3)S(=O)(=O)c2cccc(Cl)c2O1` [Example 48, (3R)-3-(7-{[(4R)-6-Chloro-4-ethyl-1,1-dioxido-3,4-dihydro-2H-5,1,2-benzoxathiazepin-2-yl]methyl}-2,3-dihydro-1H-inden-5-yl)-3-(1,4-dimethyl-1H-benzotriazol-5-yl)propanoic acid] registered an IC50 in assay [1] of no more than 10 nM. Besides, the fold induction at 0.4 µM in assay [2] is greater than 5.

Turning to `CC[C@@H]1CN(Cc2cc(C(CC(=O)O)c3cc(C4CC4)c4c(nnn4C)c3C)cc3ccsc23)S(=O)(=O)c2cc(Cl)cnc2O1` (stereo partly drawn) [Example 49, 3-(7-{[(4R)-8-Chloro-4-ethyl-1,1-dioxido-3,4-dihydro-2H-pyrido[2,3-b][1,4,5]oxathiazepin-2-yl]methyl}-1-benzothiophen-5-yl)-3-(7-cyclopropyl-1,4-dimethyl-1H-benzotriazol-5-yl)propanoic acid], in assay [1], the IC50 was in the range of 30 to 100 nM. For the same compound, the fold induction at 0.4 µM in assay [2] is greater than 5.

Regarding `CC[C@@H]1CN(Cc2cc(C(CC(=O)O)c3cc(OC)c4c(nnn4C)c3C)cc3ccsc23)S(=O)(=O)c2cc(Cl)cnc2O1` (stereo partly drawn) [Example 50, 3-(7-{[(4R)-8-Chloro-4-ethyl-1,1-dioxido-3,4-dihydro-2H-pyrido[2,3-b][1,4,5]oxathiazepin-2-yl]methyl}-1-benzothiophen-5-yl)-3-(7-methoxy-1,4-dimethyl-1H-benzotriazol-5-yl)propanoic acid], the IC50 in assay [1] is 10 to 30 nM. For the same compound, the fold induction at 0.4 µM in assay [2] was greater than 5.

`CC[C@@H]1CN(Cc2cc(C(CC(=O)O)c3cc(Cl)c4c(nnn4C)c3C)cc3ccsc23)S(=O)(=O)c2cc(Cl)cnc2O1` (stereo partly drawn) [Example 51, 3-(7-Chloro-1,4-dimethyl-1H-benzotriazol-5-yl)-3-(7-{[(4R)-8-chloro-4-ethyl-1,1-dioxido-3,4-dihydro-2H-pyrido[2,3-b][1,4,5]oxathiazepin-2-yl]methyl}-1-benzothiophen-5-yl)propanoic acid] registered an IC50 in assay [1] of 10 to 30 nM. Besides, in assay [2], the fold induction at 0.4 µM was 3 to 5.

Turning to `CC[C@@H]1CN(Cc2cc(C(CC(=O)O)c3cc(C#N)c4c(nnn4C)c3C)cc3ccsc23)S(=O)(=O)c2cc(Cl)cnc2O1` (stereo partly drawn) [Example 52, 3-(7-{[(4R)-8-Chloro-4-ethyl-1,1-dioxido-3,4-dihydro-2H-pyrido[2,3-b][1,4,5]oxathiazepin-2-yl]methyl}-1-benzothiophen-5-yl)-3-(7-cyano-1,4-dimethyl-1H-benzotriazol-5-yl)propanoic acid], in assay [1], the IC50 lay in the range of 10 to 30 nM. For the same compound, in assay [2], the fold induction at 0.4 µM was greater than 5.

In assay [1], `CC[C@@H]1CN(Cc2cc(C(CC(=O)O)c3cc(C(F)(F)F)c4c(nnn4C)c3C)cc3ccsc23)S(=O)(=O)c2cc(Cl)cnc2O1` (stereo partly drawn) [Example 53, 3-(7-{[(4R)-8-Chloro-4-ethyl-1,1-dioxido-3,4-dihydro-2H-pyrido[2,3-b][1,4,5]oxathiazepin-2-yl]methyl}-1-benzothiophen-5-yl)-3-[1,4-dimethyl-7-(trifluoromethyl)-1H-benzotriazol-5-yl]propanoic acid] had an IC50 of 10 to 30 nM. The fold induction at 0.4 µM in assay [2] is greater than 5.

As to `CC[C@@H]1CN(Cc2cc(C(CC(=O)O)c3cc(OC(F)(F)F)c4c(nnn4C)c3C)cc3ccsc23)S(=O)(=O)c2cc(Cl)cnc2O1` (stereo partly drawn) [Example 54, 3-(7-{[(4R)-8-Chloro-4-ethyl-1,1-dioxido-3,4-dihydro-2H-pyrido[2,3-b][1,4,5]oxathiazepin-2-yl]methyl}-1-benzothiophen-5-yl)-3-[1,4-dimethyl-7-(trifluoromethoxy)-1H-benzotriazol-5-yl]propanoic acid], the IC50 in assay [1] fell in the range of 10 to 30 nM. For the same compound, in assay [2], the fold induction at 0.4 µM was greater than 5.

In assay [1], `CC[C@@H]1CN(Cc2cc(C(CC(=O)O)c3cc(OC(F)F)c4c(nnn4C)c3C)cc3ccsc23)S(=O)(=O)c2cc(Cl)cnc2O1` (stereo partly drawn) [Example 55, 3-(7-{[(4R)-8-Chloro-4-ethyl-1,1-dioxido-3,4-dihydro-2H-pyrido[2,3-b][1,4,5]oxathiazepin-2-yl]methyl}-1-benzothiophen-5-yl)-3-[7-(difluoromethoxy)-1,4-dimethyl-1H-benzotriazol-5-yl]propanoic acid] returned an IC50 of 10 to 30 nM. Besides, the fold induction at 0.4 µM in assay [2] was greater than 5.

Consider `CC[C@@H]1CN(Cc2cc(C(CC(=O)O)c3ccc4c(nnn4CC(C)(C)O)c3C)cc3ccsc23)S(=O)(=O)c2cc(Cl)cnc2O1` (stereo partly drawn) [Example 56, 3-(7-{[(4R)-8-Chloro-4-ethyl-1,1-dioxido-3,4-dihydro-2H-pyrido[2,3-b][1,4,5]oxathiazepin-2-yl]methyl}-1-benzothiophen-5-yl)-3-[1-(2-hydroxy-2-methylpropyl)-4-methyl-1H-benzotriazol-5-yl]propanoic acid], for which, in assay [1], the IC50 fell in the range of 10 to 30 nM. Besides, in assay [2], the fold induction at 0.4 µM was greater than 5.

In turn, `CC[C@@H]1CN(Cc2cc(C(CC(=O)O)c3ccc4c(nnn4CCCS(C)(=O)=O)c3C)cc3ccsc23)S(=O)(=O)c2cc(Cl)cnc2O1` (stereo partly drawn) [Example 57, 3-(7-{[(4R)-8-Chloro-4-ethyl-1,1-dioxido-3,4-dihydro-2H-pyrido[2,3-b][1,4,5]oxathiazepin-2-yl]methyl}-1-benzothiophen-5-yl)-3-{4-methyl-1-[3-(methylsulfonyl)propyl]-1H-benzotriazol-5-yl}propanoic acid] displayed an IC50 in assay [1] of 10 to 30 nM. In addition, the fold induction at 0.4 µM in assay [2] was greater than 5.

`CC[C@@H]1CN(Cc2cc(C(CC(=O)O)c3ccc4c(nnn4CCN(C)C)c3C)cc3ccsc23)S(=O)(=O)c2cc(Cl)cnc2O1` (stereo partly drawn) [Example 58, 3-(7-{[(4R)-8-Chloro-4-ethyl-1,1-dioxido-3,4-dihydro-2H-pyrido[2,3-b][1,4,5]oxathiazepin-2-yl]methyl}-1-benzothiophen-5-yl)-3-{1-[2-(dimethylamino)ethyl]-4-methyl-1H-benzotriazol-5-yl}propanoic acid] showed an IC50 in assay [1] of 30 to 100 nM. Also, the fold induction at 0.4 µM in assay [2] was greater than 5.

For `CC[C@@H]1CN(Cc2cc(C(CC(=O)O)c3cnc4c(nnn4C)c3C)cc3ccsc23)S(=O)(=O)c2cc(Cl)cnc2O1` (stereo partly drawn) [Example 59, 3-(7-{[(4R)-8-Chloro-4-ethyl-1,1-dioxido-3,4-dihydro-2H-pyrido[2,3-b][1,4,5]oxathiazepin-2-yl]methyl}-1-benzothiophen-5-yl)-3-(3,7-dimethyl-3H-[1,2,3]triazolo[4,5-b]pyridin-6-yl)propanoic acid], the IC50 in assay [1] fell in the range of 10 to 30 nM. For the same compound, the fold induction at 0.4 µM in assay [2] was greater than 5.

`CC[C@@H]1CN(Cc2cc(C(CC(=O)O)c3ccc4c(nnn4CC(F)(F)F)c3C)cc3ccsc23)S(=O)(=O)c2cc(Cl)cnc2O1` (stereo partly drawn) [Example 60, 3-(7-{[(4R)-8-Chloro-4-ethyl-1,1-dioxido-3,4-dihydro-2H-pyrido[2,3-b][1,4,5]oxathiazepin-2-yl]methyl}-1-benzothiophen-5-yl)-3-[4-methyl-1-(2,2,2-trifluoroethyl)-1H-benzotriazol-5-yl]propanoic acid] yielded an IC50 in assay [1] of 10 to 30 nM. Moreover, the fold induction at 0.4 µM in assay [2] is greater than 5.

As for `CC[C@@H]1CN(Cc2cc(C(CC(=O)O)c3ccc4c(nnn4C)c3C)cc3ccsc23)[C@@H](C)c2ncccc2O1` (stereo partly drawn) [Example 61, 3-(1,4-Dimethyl-1H-benzotriazol-5-yl)-3-(7-{[(2R,5S)-2-ethyl-5-methyl-2,3-dihydropyrido[2,3-f][1,4]oxazepin-4(5H)-yl]methyl}-1-benzothiophen-5-yl)propanoic acid], the IC50 in assay [1] lay in the range of 10 to 30 nM. Moreover, the fold induction at 0.4 µM in assay [2] was greater than 5.

As to `CC[C@@H]1CN(Cc2cc([C@@H](CC(=O)O)c3ccc4c(nnn4C)c3C)cc3ccsc23)[C@@H](C)c2ncccc2O1` [Example 63, (3R)-3-(1,4-Dimethyl-1H-benzotriazol-5-yl)-3-(7-{[(2R,5S)-2-ethyl-5-methyl-2,3-dihydropyrido[2,3-f][1,4]oxazepin-4(5H)-yl]methyl}-1-benzothiophen-5-yl)propanoic acid], the IC50 in assay [1] fell in the range of 10 to 30 nM. The fold induction at 0.4 µM in assay [2] is greater than 5.

Take `CC[C@@H]1CN(Cc2cc([C@H](CC(=O)O)c3cc(Cl)c4c(nnn4C)c3C)cc3ccsc23)[C@@H](C)c2ncccc2O1` [Example 64, (3S)-3-(7-Chloro-1,4-dimethyl-1H-benzotriazol-5-yl)-3-(7-{[(2R,5S)-2-ethyl-5-methyl-2,3-dihydropyrido[2,3-f][1,4]oxazepin-4(5H)-yl]methyl}-1-benzothiophen-5-yl)propanoic acid]: the IC50 in assay [1] was no more than 10 nM. Also, the fold induction at 0.4 µM in assay [2] lay in the range of 3 to 5.

In turn, `CC[C@@H]1CN(Cc2cc([C@@H](CC(=O)O)c3ccc4c(nnn4C)c3C)cc3c2CCC3)[C@@H](C)c2ncccc2O1` [Example 65, (3R)-3-(1,4-Dimethyl-1H-benzotriazol-5-yl)-3-(7-{[(2R,5S)-2-ethyl-5-methyl-2,3-dihydropyrido[2,3-f][1,4]oxazepin-4(5H)-yl]methyl}-2,3-dihydro-1H-inden-5-yl)propanoic acid] registered an IC50 in assay [1] of 10 to 30 nM. Moreover, the fold induction at 0.4 µM in assay [2] was greater than 5.
